Laboratory results: patent US20170121683A1, “ARYL HYDROCARBON RECEPTOR DISRUPTION AND ENHANCEMENT” (priority 2015, published 2017)

Test system: hESC-derived hematopoietic cells
Assay: qRT-PCR of lymphoid-specific gene expression
Format: cell-based, human
Design: expression of TBX21/TBET, fold vs DMSO-treated control / expression of EOMES, fold vs DMSO-treated control: concentration or dose not given beside the values
Conditions: Day 11+28
Experimental: FIG. 13A. Schema of hESC differentiation into lymphoid cells as spin-embryoid bodies (spin-EBs). hESCs are made into spin-EBs at Day 0 and cultured in Stage 1 conditions with defined cytokines to promote mesoderm development for 11 days. At Day 11, spin-EBs are transferred onto OP9-DL1 in the presence of NK cell differentiation media (NKDM) to promote lymphoid differentiation. Cells are treated beginning at Day 11+0 with either 1 μM SR-1, 10 nM TCDD, or DMSO vehicle control with media exchanges and/or harvesting performed every week for up to 4 weeks. FIG. 13B. At Day 11, differentiated spin-EBs (photo) are phenotyped for CD34^+CD45^+ expression and transferred to OP9-DL1 stroma in NKDM. Non-adherent hematopoietic cells cultured either in the presence of DMSO, SR-1, or TCDD were assessed for developing NK cell immunophenotype based on CD56^+CD45^+ expression at Days 11+21, and 11+28; representative flow cytometry plots from one differentiation are shown. FIG. 13C. Quantification of fold-change in total percentage of CD56^+CD45^+ cells at both Day 11+21 and Day 11+28 when treated with DMSO, SR-1, or TCDD. SR-1 and TCDD treatments for each differentiation are normalized to DMSO controls. n=3 independent differentiation experiments, error bars represent SEM, *p<0.05 as assessed with two-way ANOVA+Tukey-Kramer multiple comparisons post-hoc test. FIG. 13D. Non-adherent hematopoietic progenitor cells derived from hESCs differentiated in the presence of SR-1, TCDD, or DMSO controls were harvested at Day 11+28 and probed for gene expression by quantitative real-time PCR (qRT-PCR). For each gene, Ct values were normalized to GAPDH at each time point and data is presented as relative fold-change to DMSO treated controls. n=3, error bars represent SEM, *p<0.05, #p<0.01 using student's t-test. FIG. 13E. Non-adherent hematopoietic progenitor cells derived from hESCs differentiated in the presence of SR-1, TCDD, or DMSO controls were harvested at Day 11+28 and assessed for CD107a expression following 4 hours of co-culture with K562 target cells at 2:1 effector:target ratio. SSC: side scatter. Representative flow cytometry plots are shown from one experiment. FIG. 13F. Quantification of percentage of CD107a^+ cells when treated with DMSO, SR-1, or TCDD at Day 11+28, n=2-3 replicates.
Spin-EBs were generated as described above (see also Knorr et al. Stem Cells Dev. 2013; 22(13):1861-9; Ni et al. Embryonic Stem Cell Immunobiol. Methods Protoc. Methods Mol. Biol. 2013; 1029:33-41; Hermanson et al. Stem Cells. 2016; 34(1):93-101). Following 11 days of mesoderm conditioning (Day 11), spin-EBs were collected and analyzed by flow cytometry to assess hematopoietic progenitor cell potential (see flow cytometry methods for antibodies used) (FIG. 4A). Spin-EBs yielding >30% CD34^+CD45^+ cells were transferred onto 24-well plates coated with irradiated OP9-DL1 cells (as described in Martin et al. Blood. 2008; 112(7):2730-7; La Motte-Mohs et al. Blood. 2005; 105(4):1431-9) (now defined as Day 11+0). EBs and OP9-DL1 were co-cultured in NK differentiation media (NKDM) supplemented initially with SCF, IL-15, IL-7, Flt3-L (all R&D Systems), and IL-3 (PeproTech) for one week; DMSO, SR-1, or TCDD were also added at Day 11+0. Every week, a one-half media change with NKDM supplemented with SCF, IL-15, IL-7, Flt3-L, and drugs was performed. hESCs were differentiated for four additional weeks (Day 11+28) and non-adherent cells were harvested for analysis. […]

## CC(C)n1cnc2c(NCCc3ccc(O)cc3)nc(-c3csc4ccccc34)nc21 [SR-1, StemReginin-1]
  expression of EOMES, fold vs DMSO-treated control: 5.12±0.52 fold
  expression of ID2, fold vs DMSO-treated control: 2.49±0.003 fold
  expression of TBX21/TBET, fold vs DMSO-treated control: 3.44±0.55 fold

## Clc1cc2c(cc1Cl)Oc1cc(Cl)c(Cl)cc1O2 [TCDD, 2,3,7,8-tetrachlorodibenzo-p-dioxin]
  expression of EOMES, fold vs DMSO-treated control: 1.84±0.11 fold
  expression of TBX21/TBET, fold vs DMSO-treated control: 1.56±0.07 fold
